The target in one assay is T1, JAK3 kinase (Homo sapiens, UniProt P52333).
T1 construct: purchased SignalChem J03-11G
In words: JAK3 kinase activity inhibition assay (ADP-Glo). It is filed as biochemical. The settings on record: ATP 10 μM. Here is the method:
The JAK3 kinase (purchased from SignalChem, No.: J03-11G) was diluted with reaction buffer (40 mM Tris-HCl, pH 7.5; 20 mM MgCl2, 0.1 mg/ml BSA; 1 mM DTT) to 2 times of the final concentration (which is 0.5 ng/μL) and added with 5 μL/well to a 96-well plate. The compounds of the present invention were serial diluted with deionized water to four times (i.e., 40 μM, 4 μM, 0.4 μM, 80 nM, 16 nM, 3.2 nM, respectively) of the final concentrations (10 μM, 1 μM, 0.1 μM, 20 nM, 4 nM, 0.8 nM, respectively), and added with 2.5 μL/well to the test wells of the 96-well plate. After incubation at 25° C. for 10 minutes, 10 μM of ATP (purchased from Promega, No.: V9102) and 0.2 μg/μL of Poly E4Y1 (purchased from Sigma, No.: P0275-25MG) were added at 2.5 μL/well and reacted at 25° C. for 60 minutes. After the reaction was completed, 10 μL of the ADP-Glo reagent (ADP-Glo™ kinase assay kit, purchased from Promega, No.: V9102) was added to each well and reacted at 25° C. for 40 minutes. Then 20 μL of the ADP-Glo kinase detection reagent was added to each well and reacted at 25° C. for 30 minutes. The kinase activity was detected by luminescence using the ADP-Glo kinase assay kit according to the manufacture's instruction, and IC50 values of the compounds of the present invention were calculated.

In the next assay the target is T2, BTK kinase (Homo sapiens, UniProt Q06187).
T2 construct: purchased Invitrogen PV3363
T2 sequence (Q06187 whole entry): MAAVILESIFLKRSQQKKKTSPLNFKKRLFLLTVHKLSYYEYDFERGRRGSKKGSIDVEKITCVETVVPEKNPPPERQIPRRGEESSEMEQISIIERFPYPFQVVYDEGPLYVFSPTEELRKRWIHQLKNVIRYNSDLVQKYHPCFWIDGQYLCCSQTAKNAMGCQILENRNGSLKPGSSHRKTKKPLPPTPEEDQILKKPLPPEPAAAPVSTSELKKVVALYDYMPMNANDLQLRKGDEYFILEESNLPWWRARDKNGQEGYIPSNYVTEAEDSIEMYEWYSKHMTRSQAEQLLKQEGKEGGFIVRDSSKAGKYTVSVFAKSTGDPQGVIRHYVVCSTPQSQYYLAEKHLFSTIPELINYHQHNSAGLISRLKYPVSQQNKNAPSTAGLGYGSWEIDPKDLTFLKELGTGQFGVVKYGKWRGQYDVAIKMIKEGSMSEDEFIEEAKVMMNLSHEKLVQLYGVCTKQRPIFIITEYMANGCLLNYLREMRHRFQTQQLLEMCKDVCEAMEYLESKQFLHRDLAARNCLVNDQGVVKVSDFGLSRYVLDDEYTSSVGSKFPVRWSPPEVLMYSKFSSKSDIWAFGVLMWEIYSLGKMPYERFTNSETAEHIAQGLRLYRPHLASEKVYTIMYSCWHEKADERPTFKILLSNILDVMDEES
Put plainly: BTK kinase activity inhibition assay (ADP-Glo). The settings on record: ATP 50 μM. It is filed as biochemical. Here is the method:
The BTK kinase (purchased from Invitrogen, No.: PV3363) was diluted with reaction buffer (40 mM Tris-HCl, pH 7.5; 20 mM MgCl2, 0.1 mg/ml BSA; 1 mM DTT; 2 mM MnCl2) to 2 times of the final concentration (which is 1.1 ng/μL) and added with 5 μL/well to a 96-well plate. The compounds of the present invention were serial diluted with deionized water to four times (i.e., 40 μM, 4 μM, 0.4 μM, 80 nM, 16 nM, 3.2 nM, respectively) of the final concentrations (10 μM, 1 μM, 0.1 μM, 20 nM, 4 nM, 0.8 nM, respectively), and added at 2.5 μL/well to the test wells of the 96-well plate. After incubation at 25° C. for 10 minutes, ATP (50 μM) (purchased from Promega, No.: V9102) and 0.2 μg/μL of Poly E4Y1 (purchased from Sigma, No.: P0275-25MG) were added with 2.5 μL/well and incubated at 25° C. for 120 minutes. After the reaction was completed, 10 μL of the ADP-Glo reagent (ADP-Glo™ kinase assay kit, purchased from Promega, No.: V9102) was added to each well, and reacted at 25° C. for 40 minutes. Then 20 μL of the ADP-Glo kinase detection reagent was added to each well and reacted at 25° C. for 30 minutes. The kinase activity was detected by luminescence using the ADP-Glo kinase assay kit according to the manufacture's instruction, and IC50 values of the compounds of the present invention were calculated.
In general terms: ADP-Glo turns the ADP formed in a reaction into a luminescent signal.

Structures are written as SMILES. A value given as a limit tells only on which side of the number the result lay.

T1 sequence (P52333 781-1124 limits assumed): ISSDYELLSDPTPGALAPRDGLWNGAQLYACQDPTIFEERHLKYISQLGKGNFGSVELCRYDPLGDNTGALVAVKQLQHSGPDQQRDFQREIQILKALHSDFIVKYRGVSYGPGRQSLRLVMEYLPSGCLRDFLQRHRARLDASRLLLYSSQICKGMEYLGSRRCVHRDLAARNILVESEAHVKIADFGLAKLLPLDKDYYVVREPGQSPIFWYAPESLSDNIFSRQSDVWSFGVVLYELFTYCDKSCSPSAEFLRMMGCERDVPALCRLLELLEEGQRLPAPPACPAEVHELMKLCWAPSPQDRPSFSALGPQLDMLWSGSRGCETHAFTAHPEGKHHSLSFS

On to `C=CC(=O)N1CC[C@@H](Nc2nc(Nc3cnn(CCN(C)C)c3)nc3ccsc23)C1` [Example 124], for which the IC50 (commonly the point on the concentration scale where inhibition reaches its midpoint) at JAK3 kinase was 10 to 100 nM; on BTK kinase it was at most 50 nM.

In the case of `C=CC(=O)N1CC[C@@H](Nc2nc(Nc3cnn(C(C)C)c3)nc3ccsc23)C1` [Example 119], the values for the IC50 on JAK3 kinase and against BTK kinase were 10 to 100 nM and at most 50 nM, respectively.

`C=CC(=O)N1CC[C@@H](Nc2nc(Nc3cnn(C)c3)nc3ccsc23)C1` [Example 75]: the IC50 on JAK3 kinase was 10 to 100 nM; against BTK kinase, at most 50 nM.

For the compound `C=CC(=O)N1CC[C@@H](Nc2nc(Nc3cnn(C)c3)nc3sccc23)C1` [Example 101], the 50% inhibitory concentration (IC50) on JAK3 kinase fell in the range of 100 to 1000 nM; on BTK kinase it was 50 to 100 nM.

For the compound `C=CC(=O)N1CC[C@@H](Nc2nc(Nc3cc(C)ns3)nc3ccoc23)C1` [Example 94], the IC50 is at most 10 nM against JAK3 kinase and at most 50 nM on BTK kinase.

For `C=CC(=O)N1CC(CNc2nc(Nc3cc(C)no3)nc3ccsc23)C1` [Example 69], the IC50 is 10 to 100 nM on JAK3 kinase and at most 50 nM against BTK kinase.

As for `C=CC(=O)N1CC(CNc2nc(Nc3cccs3)nc3ccsc23)C1` [Example 72], the figures for the IC50 against JAK3 kinase and at BTK kinase were 10 to 100 nM and at most 50 nM, respectively.

As to `C=CC(=O)N1CCC[C@@H](Nc2nc(Nc3cc(C)no3)nc3ccsc23)C1` [Example 85], the IC50 against JAK3 kinase fell in the range of 10 to 100 nM; against BTK kinase, 50 to 100 nM.

Turning to `C=CC(=O)N1CC[C@@H](Nc2nc(Nc3cnoc3)nc3ccsc23)C1` [Example 78], the half-inhibitory concentration (IC50) was in the range of 10 to 100 nM at JAK3 kinase and 50 to 100 nM against BTK kinase.

Consider `C=CC(=O)N1CC(CNc2nc(Nc3cc(C(C)C)no3)nc3ccsc23)C1` [Example 70], for which the values for the half-maximal inhibitory concentration (IC50) at JAK3 kinase and against BTK kinase were 10 to 100 nM and 50 to 100 nM, respectively.

On to `C=CC(=O)N1CCC[C@@H](Nc2nc(Nc3cc(C)ns3)nc3ccoc23)C1` [Example 96], for which the IC50 is at most 10 nM against JAK3 kinase and at most 50 nM against BTK kinase.

As for `C=CC(=O)N1CC[C@@H](Nc2nc(Nc3cnn(CCCOC)c3)nc3ccsc23)C1` [Example 123], the IC50 at JAK3 kinase is 10 to 100 nM; against BTK kinase, at most 50 nM.

Turning to `C=CC(=O)N1CC(CNc2nc(Nc3cc(C)[nH]n3)nc3ccsc23)C1` [Example 65], the IC50 on JAK3 kinase is 10 to 100 nM; against BTK kinase, at most 50 nM.

For `C=CC(=O)N1CC(CNc2nc(Nc3cnn(C)c3)nc3sccc23)C1` [Example 99, 1-(3-(((2-((1-methyl-1H-pyrazol-4-yl)amino)thieno[2,3-d]pyrimidin-4-yl)amino)methyl)azetidin-1-yl)prop-2-en-1-one], the figures for the half-inhibitory concentration (IC50) against JAK3 kinase and at BTK kinase were 10 to 100 nM and 50 to 100 nM, respectively.

Turning to `C=CC(=O)N1CCC[C@@H](Nc2nc(Nc3cc(C)ns3)nc3sccc23)C1` [Example 104], the IC50 on JAK3 kinase was 10 to 100 nM; at BTK kinase, at most 50 nM.

With `C=CC(=O)N1CC[C@@H](Nc2nc(Nc3cnn(CC)c3)nc3ccsc23)C1` [Example 118], the half-maximal inhibitory concentration (IC50) was 10 to 100 nM against JAK3 kinase and at most 50 nM against BTK kinase.

As for `C=CC(=O)N1CC[C@@H](Nc2nc(Nc3cnn(C4CCC4)c3)nc3ccsc23)C1` [Example 120], the IC50 was 10 to 100 nM on JAK3 kinase and at most 50 nM on BTK kinase.

With `C=CC(=O)N1CC[C@@H](Nc2nc(Nc3cnn(C4CCCC4)c3)nc3ccsc23)C1` [Example 121], the IC50 at JAK3 kinase was 10 to 100 nM; on BTK kinase, at most 50 nM.

As for `C=CC(=O)N1CC[C@@H](Nc2nc(Nc3cc(C)ns3)nc3sccc23)C1` [Example 102], the values for the half-maximal inhibitory concentration (IC50) at JAK3 kinase and on BTK kinase were 10 to 100 nM and at most 50 nM, respectively.

For the compound `C=CC(=O)N1CC(CNc2nc(Nc3cnn(C4CCC4)c3)nc3ccsc23)C1` [Example 111], the IC50 against JAK3 kinase was 10 to 100 nM; on BTK kinase, at most 50 nM.

For the compound `C=CC(=O)N1CC[C@@H](Nc2nc(Nc3cnn(C)c3)nc3ccoc23)C1` [Example 93], the IC50 against JAK3 kinase is 10 to 100 nM; at BTK kinase, at most 50 nM.

Regarding `C=CC(=O)N1CCC[C@@H](Nc2nc(Nc3cnn(C)c3)nc3ccsc23)C1` [Example 80], the values for the IC50 against JAK3 kinase and against BTK kinase were 10 to 100 nM and at most 50 nM, respectively.

Consider `C=CC(=O)N1CC(CNc2nc(Nc3cnoc3)nc3ccsc23)C1` [Example 73], for which the IC50 against JAK3 kinase is 10 to 100 nM; at BTK kinase it was at most 50 nM.

For the compound `C=CC(=O)N1CCC[C@@H](Nc2nc(Nc3cc(C)ns3)nc3ccsc23)C1` [Example 82], the 50% inhibitory concentration (IC50) at JAK3 kinase was at most 10 nM; against BTK kinase, at most 50 nM.

As for `C=CC(=O)N1CC(CNc2nc(Nc3cc(C)ns3)nc3ccsc23)C1` [Example 71], the 50% inhibitory concentration (IC50) against JAK3 kinase is at most 10 nM; against BTK kinase, at most 50 nM.

Regarding `C=CC(=O)N1CC[C@@H](N(C)c2nc(Nc3cnn(C)c3)nc3ccsc23)C1` [Example 105, (R)-1-(3-(methyl(2-((1-methyl-1H-pyrazol-4-yl)amino)thieno[3,2-d]pyrimidin-4-yl)amino)pyrrolidin-1-yl)prop-2-en-1-one], the IC50 against JAK3 kinase was 10 to 100 nM; at BTK kinase, at most 50 nM.

Consider `C=CC(=O)N1CC(CNc2nc(Nc3cnn(C(C)C)c3)nc3ccsc23)C1` [Example 108], for which the values for the IC50 at JAK3 kinase and against BTK kinase were at most 10 nM and at most 50 nM, respectively.

On to `C=CC(=O)N1CC[C@@H](Nc2nc(Nc3cnn(C4CCOCC4)c3)nc3ccsc23)C1` [Example 125], for which the IC50 on JAK3 kinase was at most 10 nM; against BTK kinase, at most 50 nM.

As to `C=CC(=O)N1CC(CNc2nc(Nc3cnn(COC)c3)nc3ccsc23)C1` [Example 114], the IC50 against JAK3 kinase is 10 to 100 nM; on BTK kinase, at most 50 nM.

On to `C=CC(=O)N1CC[C@@H](Nc2nc(Nc3cccs3)nc3ccsc23)C1` [Example 76], for which the IC50 is 10 to 100 nM on JAK3 kinase and at most 50 nM at BTK kinase.

On to `C=CC(=O)N1CC[C@@H](Nc2nc(Nc3cn[nH]c3)nc3ccsc23)C1` [Example 77], for which the half-maximal inhibitory concentration (IC50) on JAK3 kinase was 10 to 100 nM; on BTK kinase it was at most 50 nM.

As to `C=CC(=O)N1CC(CNc2nc(Nc3cnn(C)c3)nc3ccsc23)C1` [Example 61, 1-(3-(((2-((1-methyl-1H-pyrazol-4-yl)amino)thieno[3,2-d]pyrimidin-4-yl)amino)methyl)azetidin-1-yl)prop-2-en-1-one], the IC50 against JAK3 kinase was at most 10 nM; on BTK kinase it was at most 50 nM.

With `C=CC(=O)N1CCC[C@@H](Nc2nc(Nc3cnn(C)c3)nc3sccc23)C1` [Example 103], the IC50 at JAK3 kinase is 100 to 1000 nM; against BTK kinase it was at most 50 nM.

Take `C=CC(=O)N1CCC[C@@H](Nc2nc(Nc3cnn(C)c3)nn3cccc23)C1` [Example 135]: the IC50 against JAK3 kinase was 10 to 100 nM; against BTK kinase it was at most 50 nM.

For the compound `C=CC(=O)N1CCC[C@@H](Nc2nc(Nc3cnn(CC)c3)nc3ccsc23)C1` [Example 127], the IC50 against JAK3 kinase is at most 10 nM; at BTK kinase, at most 50 nM.

Regarding `C=CC(=O)N1CCC[C@@H](Nc2nc(Nc3cnn(C4CCCC4)c3)nc3ccsc23)C1` [Example 130], the figures for the concentration for half-maximal inhibition (IC50) against JAK3 kinase and on BTK kinase were 10 to 100 nM and at most 50 nM, respectively.

As for `C=CC(=O)N1CC[C@@H](Nc2nc(Nc3cc(C)no3)nc3ccsc23)C1` [Example 79], the IC50 lay within 10 to 100 nM against JAK3 kinase and 100 to 1000 nM at BTK kinase.

Take `C=CC(=O)N1CCC[C@@H](Nc2nc(Nc3cnn(C4CCC4)c3)nc3ccsc23)C1` [Example 129]: the 50% inhibitory concentration (IC50) on JAK3 kinase is 10 to 100 nM; against BTK kinase it was at most 50 nM.

Turning to `C=CC(=O)N1CCC[C@@H](Nc2nc(Nc3cccs3)nc3ccsc23)C1` [Example 84], the IC50 is 10 to 100 nM at JAK3 kinase and at most 50 nM on BTK kinase.

As to `C=CC(=O)N1CCC[C@@H](Nc2nc(Nc3cn[nH]c3)nc3ccsc23)C1` [Example 81], the 50% inhibitory concentration (IC50) was 10 to 100 nM against JAK3 kinase and at most 50 nM against BTK kinase.
